According to patent publication US20260216255A1, “STRAIN OF COLLINSELLA, AND PHARMACEUTICAL COMPOSITION THEREOF” (MOON (GUANGZHOU) BIOTECH CO., LTD., priority 2022, published 2026):

Tested on: strain MNH 18574
Experiment: Antibiotic sensitivity test by disk diffusion method
Type: cell-based, Collinsella sp.
Conditions: for Diameter of inhibition zone: strain MNH 18574
Description: An antibiotic sensitivity test was carried out on the strain MNH 18574 by a disk diffusion method.

Molecule | sensitivity or resistance of strain MNH 18574 to the antibiotic | Diameter of inhibition zone [mm]
CC1(C)S[C@@H]2[C@H](NC(=O)[C@H](N)c3ccccc3)C(=O)N2[C@H]1C(=O)O [Ampicillin (AMP), Ampicillin] | resistant | 0
CO/N=C(\C(=O)N[C@@H]1C(=O)N2C(C(=O)O)=C(CSc3nc(=O)c(=O)[nH]n3C)CS[C@H]12)c1csc(N)n1 [Ceftriaxone (CTR), Ceftriaxone] | resistant | 0
O=C(N[C@H](CO)[C@H](O)c1ccc([N+](=O)[O-])cc1)C(Cl)Cl [Chloramphenicol (CLM), Chloramphenicol] | sensitive | 27.64
O=C(O)c1cn(C2CC2)c2cc(N3CCNCC3)c(F)cc2c1=O [Ciprofloxacin (CFX), Ciprofloxacin] | resistant | 0
CC[C@H]1OC(=O)[C@H](C)[C@@H](O[C@H]2C[C@@](C)(OC)[C@@H](O)[C@H](C)O2)[C@H](C)[C@@H](O[C@@H]2O[C@H](C)C[C@H](N(C)C)[C@H]2O)[C@](C)(O)C[C@@H](C)C(=O)[C@H](C)[C@@H](O)[C@]1(C)O [Erythromycin (ERM), Erythromycin] | resistant | 0
CCC[C@@H]1C[C@@H](C(=O)N[C@@H]([C@H]2O[C@H](SC)[C@H](O)[C@@H](O)[C@H]2O)[C@@H](C)O)N(C)C1 [Lincomycin (LIN), Lincomycin] | resistant | 0
CN(C)[C@@H]1C(O)=C(C(N)=O)C(=O)[C@@]2(O)C(O)=C3C(=O)c4c(O)cccc4[C@@](C)(O)[C@H]3C[C@@H]12 [Tetracycline (TET), Tetracycline] | – | 0
Gentamicin [Gentamicin (GEN)] | resistant | 0
Penicillin [Penicillin (PEN)] | sensitive | 24.51
Trimethoprim-sulfamethoxazole [Trimethoprim-sulfamethoxazole (T/S)] | resistant | 0
